Measured values: patent publication US12404241B2 (Celgene Corporation, priority 2018, dated 2025)
Structures can show the parent of a compound that is named as a salt.

Target: T1, AR (Homo sapiens, UniProt P10275)
T1 construct: endogenous in cells; host or cells: VCaP cells
T1 sequence (P10275 1-920): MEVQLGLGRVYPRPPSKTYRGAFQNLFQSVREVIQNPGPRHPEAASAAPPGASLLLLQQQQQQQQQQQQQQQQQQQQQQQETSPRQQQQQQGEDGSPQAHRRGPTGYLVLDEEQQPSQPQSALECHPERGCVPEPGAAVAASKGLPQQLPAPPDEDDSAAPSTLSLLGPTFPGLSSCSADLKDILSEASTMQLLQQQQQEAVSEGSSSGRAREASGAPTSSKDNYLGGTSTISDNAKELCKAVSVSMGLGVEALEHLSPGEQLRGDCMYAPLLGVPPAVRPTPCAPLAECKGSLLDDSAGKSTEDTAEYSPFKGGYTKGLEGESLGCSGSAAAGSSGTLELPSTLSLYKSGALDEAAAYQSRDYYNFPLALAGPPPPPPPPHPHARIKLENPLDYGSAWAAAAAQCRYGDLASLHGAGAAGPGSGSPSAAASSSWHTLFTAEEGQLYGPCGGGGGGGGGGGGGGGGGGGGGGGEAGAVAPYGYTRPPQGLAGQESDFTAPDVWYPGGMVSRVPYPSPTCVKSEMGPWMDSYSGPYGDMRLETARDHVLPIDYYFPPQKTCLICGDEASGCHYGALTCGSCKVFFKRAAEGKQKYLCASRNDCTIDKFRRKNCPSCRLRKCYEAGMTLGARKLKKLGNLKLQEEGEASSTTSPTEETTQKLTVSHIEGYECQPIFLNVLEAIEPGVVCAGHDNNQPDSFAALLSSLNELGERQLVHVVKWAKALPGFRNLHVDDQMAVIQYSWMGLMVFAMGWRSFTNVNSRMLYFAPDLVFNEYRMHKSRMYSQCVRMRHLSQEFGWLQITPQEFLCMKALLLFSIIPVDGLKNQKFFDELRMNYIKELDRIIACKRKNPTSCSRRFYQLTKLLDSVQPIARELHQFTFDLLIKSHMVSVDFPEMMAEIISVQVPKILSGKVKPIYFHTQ
Assay: VCAP AR Degradation Assay
Format: cell-based
Conditions: for Y (AR degradation efficiency, % of DMSO control): class symbols *; for DC50: class symbols A-C, read-out: DC50
Summary of the method: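 VCaP cells treated 24 h at 37 °C with a 10-point 1:3 series (top 5 μM final; 0.1% DMSO control). Lysate AR measured by sandwich ELISA, normalized to DMSO as percent of control; DC50, EC50 and lowest AR level (Y) from four-parameter logistic fit.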

SMILES	Y (AR degradation efficiency, % of DMSO control)	DC50
CC(F)(F)c1cc(N2C(=S)N(c3cnc(C#N)c(C(F)(F)F)c3)C(=O)C2(C)C)ccc1OCCN1CCN(CC(=O)Nc2cc(NC3CCC(=O)NC3=O)cc(F)c2F)CC1 (centres unmarked) [Example 82, 2-(4-(2-(4-(3-(6-cyano-5-(trifluoromethyl)pyridin-3-yl)-5,5-dimethyl-4-oxo-2-thioxoimidazolidin-1-yl)-2-(1,1-difluoroethyl)phenoxy)ethyl)piperazin-1-yl)-N-(5-(2,6-dioxopiperidin-3-ylamino)-2,3-difluorophenyl)acetamide]	* (0<Y<=25%)	< 100 nM
CCC(C)c1cc(N2C(=S)N(c3cnc(C#N)c(C(F)(F)F)c3)C(=O)C2(C)C)ccc1OCCN1CCN(CC(=O)Nc2cccc(NC3CCC(=O)NC3=O)c2)CC1 (centres unmarked) [Example 37, hydrochloride]	*** (35%<Y<50%)	500 to 1000 nM
C[C@@H]1CN(CCOc2ccc(N3C(=S)N(c4cnc(C#N)c(C(F)(F)F)c4)C(=O)C3(C)C)cc2C(C)(F)F)C[C@H](C)N1CC(=O)Nc1cc(C#N)cc(NC2CCC(=O)NC2=O)c1 (stereo partly drawn) [Example 258, N-(3-cyano-5-(2,6-dioxopiperidin-3-ylamino)phenyl)-2-((2S,6R)-4-(2-(4-(3-(6-cyano-5-(trifluoromethyl)pyridin-3-yl)-5,5-dimethyl-4-oxo-2-thioxoimidazolidin-1-yl)-2-(1,1-difluoroethyl)phenoxy)ethyl)-2.6-dimethylpiperazin-1-yl)acetamide]	* (0<Y<=25%)	< 100 nM
CCc1cc(N2C(=S)N(c3cnc(C#N)c(C(F)(F)F)c3)C(=O)C2(C)C)ccc1OCCN1CCN([C@H](C)C(=O)Nc2cc(Cl)cc(NC3CCC(=O)NC3=O)c2)CC1 (stereo partly drawn) [Example 191, (2R)-N-(3-chloro-5-(2,6-dioxopiperidin-3-ylamino)phenyl)-2-(4-(2-(4-(3-(6-cyano-5-(trifluoromethyl)pyridin-3-yl)-5,5-dimethyl-4-oxo-2-thioxoimidazolidin-1-yl)-2-ethylphenoxy)ethyl)piperazin-1-yl)propanamide]	* (0<Y<=25%)	< 100 nM
CCc1cc(N2C(=S)N(c3cnc(C#N)c(C(F)(F)F)c3)C(=O)C2(C)C)ccc1OCCN1CCN(CC(=O)Nc2cc(C#N)cc(NC3CCC(=O)NC3=O)c2)[C@H](C)C1 (stereo partly drawn) [Example 155, N-(3-cyano-5-(2,6-dioxopiperidin-3-ylamino)phenyl)-2-((R)-4-(2-(4-(3-(6-cyano-5-(trifluoromethyl)pyridin-3-yl)-5,5-dimethyl-4-oxo-2-thioxoimidazolidin-1-yl)-2-ethylphenoxy)ethyl)-2-methylpiperazin-1-yl)acetamide]	* (0<Y<=25%)	< 100 nM
CC1(C)C(=O)N(c2ccc(C#N)c(C(F)(F)F)c2)C(=S)N1c1ccc(OCCN2CC3CCC(C2)N3CC(=O)Nc2cccc(NC3CCC(=O)NC3=O)c2)c(C2CC2)c1 (centres unmarked) [Example 238, 2-(3-(2-(4-(3-(4-cyano-3-(trifluoromethyl)phenyl)-5,5-dimethyl-4-oxo-2-thioxoimidazolidin-1-yl)-2-cyclopropylphenoxy)ethyl)-3,8-diazabicyclo[3.2.1]octan-8-yl)-N-(3-(2,6-dioxopiperidin-3-ylamino)phenyl)acetamide]	* (0<Y<=25%)	500 to 1000 nM
CC(F)(F)c1cc(N2C(=S)N(c3cnc(C#N)c(C(F)(F)F)c3)C(=O)C2(C)C)ccc1OCCN1CCN(CC(=O)Nc2cc(F)cc(NC3CCC(=O)NC3=O)c2)CC1 (centres unmarked) [Example 80, 2-(4-(2-(4-(3-(6-cyano-5-(trifluoromethyl)pyridin-3-yl)-5,5-dimethyl-4-oxo-2-thioxoimidazolidin-1-yl)-2-(1,1-difluoroethyl)phenoxy)ethyl)piperazin-1-yl)-N-(3-(2,6-dioxopiperidin-3-ylamino)-5-fluorophenyl)acetamide]	* (0<Y<=25%)	< 100 nM
CCc1cc(N2C(=S)N(c3cnc(C#N)c(C(F)(F)F)c3)C(=O)C2(C)C)ccc1OCCN1CCN(CC(=O)Nc2cccc(N[C@H]3CCC(=O)NC3=O)c2)[C@H](C)C1 [Example 137, 2-((R)-4-(2-(4-(3-(6-cyano-5-(trifluoromethyl)pyridin-3-yl)-5,5-dimethyl-4-oxo-2-thioxoimidazolidin-1-yl)-2-ethylphenoxy)ethyl)-2-methylpiperazin-1-yl)-N-(3-((S)-2,6-dioxopiperidin-3-ylamino)phenyl)acetamide]	* (0<Y<=25%)	< 100 nM
CCc1cc(N2C(=S)N(c3ccc(C#N)c(C(F)(F)F)c3)C(=O)C23CCCC3)ccc1OCCN1C[C@@H](C)N(CC(=O)Nc2cccc(NC3CCC(=O)NC3=O)c2)[C@@H](C)C1 (stereo partly drawn) [Example 267, 2-((2S,6R)-4-(2-(4-(3-(4-cyano-3-(trifluoromethyl)phenyl)-4-oxo-2-thioxo-1,3-diazaspiro[4.4]nonan-1-yl)-2-ethylphenoxy)ethyl)-2,6-dimethylpiperazin-1-yl)-N-(3-(2,6-dioxopiperidin-3-ylamino)phenyl)acetamide]	* (0<Y<=25%)	< 100 nM
C[C@@H]1CN(CCOc2ccc(N3C(=S)N(c4ccc(C#N)c(C(F)(F)F)c4)C(=O)C3(C)C)cc2Cl)C[C@H](C)N1CC(=O)Nc1cccc(NC2CCC(=O)NC2=O)c1 (stereo partly drawn) [Example 282, 2-((2S,6R)-4-(2-(2-chloro-4-(3-(4-cyano-3-(trifluoromethyl)phenyl)-5,5-dimethyl-4-oxo-2-thioxoimidazolidin-1-yl)phenoxy)ethyl)-2,6-dimethylpiperazin-1-yl)-N-(3-(2,6-dioxopiperidin-3-ylamino)phenyl)acetamide]	* (0<Y<=25%)	< 100 nM
CCc1cc(N2C(=S)N(c3cnc(C#N)c(C(F)(F)F)c3)C(=O)C2(C)C)ccc1OCCN1CCN(CC(=O)Nc2cc(NC3CCC(=O)NC3=O)cc(F)c2F)[C@H](C)C1 (stereo partly drawn) [Example 100, 2-((R)-4-(2-(4-(3-(6-cyano-5-(trifluoromethyl)pyridin-3-yl)-5,5-dimethyl-4-oxo-2-thioxoimidazolidin-1-yl)-2-ethylphenoxy)ethyl)-2-methylpiperazin-1-yl)-N-(5-(2,6-dioxopiperidin-3-ylamino)-2,3-difluorophenyl)acetamide]	* (0<Y<=25%)	< 100 nM
CCc1cc(N2C(=S)N(c3ccc(C#N)c(C(F)(F)F)c3)C(=O)C2(C)C)ccc1OCCN1CCN(CC(=O)Nc2cccc(NC3CCC(=O)NC3=O)c2)CC1 (centres unmarked) [Example 10, hydrochloride]	* (0<Y<=25%)	< 100 nM
CC(C)c1cc(N2C(=S)N(c3ccc(C#N)c(Cl)c3)C(=O)C2(C)C)ccc1OCCN1C[C@@H](C)N(CC(=O)Nc2cccc(NC3CCC(=O)NC3=O)c2)C[C@H]1C (stereo partly drawn) [Example 207, 2-((2R,5R)-4-(2-(4-(3-(3-chloro-4-cyanophenyl)-5,5-dimethyl-4-oxo-2-thioxoimidazolidin-1-yl)-2-isopropylphenoxy)ethyl)-2,5-dimethylpiperazin-1-yl)-N-(3-(2,6-dioxopiperidin-3-ylamino)phenyl)acetamide]	** (25%<Y<=35%)	100 to 500 nM
C[C@@H]1CN(CCOc2ccc(N3C(=S)N(c4cnc(C#N)c(C(F)(F)F)c4)C(=O)C3(C)C)cc2C2CC2)C[C@H](C)N1CC(=O)Nc1cccc(NC2CCC(=O)NC2=O)c1 (stereo partly drawn) [Example 235, 2-((2S,6R)-4-(2-(4-(3-(6-cyano-5-(trifluoromethyl)pyridin-3-yl)-5,5-dimethyl-4-oxo-2-thioxoimidazolidin-1-yl)-2-cyclopropylphenoxy)ethyl)-2,6-dimethylpiperazin-1-yl)-N-(3-(2,6-dioxopiperidin-3-ylamino)phenyl)acetamide]	* (0<Y<=25%)	< 100 nM
CC(F)(F)c1cc(N2C(=S)N(c3ccc(C#N)c(C(F)(F)F)c3)C(=O)C2(C)C)ccc1OCCN1CCN(CC(=O)Nc2cc(Cl)cc(NC3CCC(=O)NC3=O)c2)CC1 (centres unmarked) [Example 157, N-(3-chloro-5-(2,6-dioxopiperidin-3-ylamino)phenyl)-2-(4-(2-(4-(3-(4-cyano-3-(trifluoromethyl)phenyl)-5,5-dimethyl-4-oxo-2-thioxoimidazolidin-1-yl)-2-(1,1-difluoroethyl)phenoxy)ethyl)piperazin-1-yl)acetamide]	* (0<Y<=25%)	< 100 nM
N#Cc1ccc(N2C(=O)C3(CCC3)N(c3ccc(OCCN4CCN(CC(=O)Nc5cccc(NC6CCC(=O)NC6=O)c5)CC4)c(F)c3)C2=S)cc1C(F)(F)F (centres unmarked) [Example 8, hydrochloride]	** (25%<Y<=35%)	< 100 nM
